What was measured:
[1] = safety and tolerability, adverse events (CTCAE version 4.03) in patients
Procedure: Safety was appraised throughout the study by the assessment of clinical and laboratory adverse events (AEs; graded by Common Terminology Criteria for Adverse Events [CTCAE], version 4.03), physical examination, and evaluation of vital signs and laboratory data (clinical chemistry and hematology).
Patients were evaluated according to the treatment received.

CYP3A = conditions: read-out: IC50, reversible inhibition of CYP3A; ref AstraZeneca, data on file, 2020; 16; cited from earlier work
Wee1 = tested on: Wee1; design: method as in PMID 25964244, PMID 19887545; conditions: read-out: half-maximal inhibitory concentration (IC50); cited from earlier work
[2] = after receiving adavosertib, all 30 patients
[3] = probe cocktail plus adavosertib 26 patients, adavosertib alone on days 1 and 2, 30
[4] = probe cocktail plus adavosertib n = 26, adavosertib alone n = 30

C=CCn1c(=O)c2cnc(Nc3ccc(N4CCN(C)CC4)cc3)nc2n1-c1cccc(C(C)(C)O)n1 [adavosertib]
0 Number of patients (%): Blood creatinine increased (causally related), grade ≥3 ([1]; Total (n = 30)) | Decreased appetite (causally related), grade ≥3 ([1]; Total (n = 30)) | Dizziness (causally related), grade ≥3 ([1]; Total (n = 30)) | Fatigue (causally related), grade ≥3 ([1]; Total (n = 30)) | Flushing (causally related), grade ≥3 ([1]; Total (n = 30)) | General disorders and administration site conditions (causally related), grade ≥3 ([1]; Total (n = 30)) | Investigations (causally related), grade ≥3 ([1]; Total (n = 30)) | Muscle spasms (causally related), grade ≥3 ([1]; Total (n = 30)) | Musculoskeletal and connective tissue disorders (causally related), grade ≥3 ([1]; Total (n = 30)) | Nasal ulcer (causally related), grade ≥3 ([1]; Total (n = 30)) | Nervous system disorders (causally related), grade ≥3 ([1]; Total (n = 30)) | Respiratory, thoracic and mediastinal disorders (causally related), grade ≥3 ([1]; Total (n = 30)) | Stomatitis (causally related), grade ≥3 ([1]; Total (n = 30)) | Thrombocytopenia (causally related), grade ≥3 ([1]; Total (n = 30)) | Vascular disorders (causally related), grade ≥3 ([1]; Total (n = 30)) | Weight decreased (causally related), grade ≥3 ([1]; Total (n = 30))
3 (10.0) Number of patients (%): Blood and lymphatic system disorders (causally related), grade ≥3 ([1]; Total (n = 30)) | Diarrhea (causally related), grade ≥3 ([1]; Total (n = 30)) | Gastrointestinal disorders (causally related), grade ≥3 ([1]; Total (n = 30)) | Metabolism and nutrition disorders (causally related), any grade ([1]; Total (n = 30)) | Weight decreased (causally related), any grade ([1]; Total (n = 30))
14 (46.7) Number of patients (%): Diarrhea (causally related), any grade ([1]; Total (n = 30))
10.0%: patients with CTCAE grade ≥ 3 diarrhea ([1]; any cause) | patients with treatment-related nausea [1, 4]
33.3%: patients with treatment-related diarrhea [1, 4]
63%: patients with treatment-related adverse events [1, 2]
16.7%: patients with adverse events of CTCAE grade ≥ 3 [1, 3]
36.7%: patients with treatment-related AEs [1, 3]
4 (13.3) Number of patients (%): Blood and lymphatic system disorders (causally related), any grade ([1]; Total (n = 30)) | Investigations (causally related), any grade ([1]; Total (n = 30))
Two: patients who discontinued treatment because of AEs ([1]; grade 3 diarrhea (related to adavosertib), grade 3 small-bowel obstruction (not related))
3.3%: patients with CTCAE grade ≥ 3 acute kidney injury ([1]; any cause) | patients with CTCAE grade ≥ 3 dehydration ([1]; any cause) | patients with CTCAE grade ≥ 3 hypokalemia ([1]; any cause) | patients with CTCAE grade ≥ 3 hypoxia ([1]; any cause) | patients with CTCAE grade ≥ 3 nausea ([1]; any cause) | patients with CTCAE grade ≥ 3 necrotizing soft-tissue infection ([1]; any cause) | patients with CTCAE grade ≥ 3 neutropenia ([1]; any cause) | patients with CTCAE grade ≥ 3 pancreatitis ([1]; any cause) | patients with CTCAE grade ≥ 3 small-intestinal obstruction ([1]; any cause) | patients with CTCAE grade ≥ 3 thrombocytopenia ([1]; any cause) | patients with CTCAE grade ≥ 3 vomiting ([1]; any cause)
6 (20.0) Number of patients (%): Nausea (causally related), any grade ([1]; Total (n = 30))
7 (23.3) Number of patients (%): Vomiting (causally related), any grade ([1]; Total (n = 30))
17 (56.7) Number of patients (%): Gastrointestinal disorders (causally related), any grade ([1]; Total (n = 30))
53.3%: patients who experienced AEs ([1]; cocktail alone 33 patients, probe cocktail plus adavosertib 26, adavosertib alone on days 1 and 2, 30)
20.0%: patients with treatment-related vomiting ([1]; adavosertib alone n = 30)
1 (3.3) Number of patients (%): Blood creatinine increased (causally related), any grade ([1]; Total (n = 30)) | Decreased appetite (causally related), any grade ([1]; Total (n = 30)) | Dehydration (causally related), grade ≥3 ([1]; Total (n = 30)) | Fatigue (causally related), any grade ([1]; Total (n = 30)) | Flushing (causally related), any grade ([1]; Total (n = 30)) | General disorders and administration site conditions (causally related), any grade ([1]; Total (n = 30)) | Hypokalemia (causally related), any grade ([1]; Total (n = 30)) | Hypokalemia (causally related), grade ≥3 ([1]; Total (n = 30)) | Muscle spasms (causally related), any grade ([1]; Total (n = 30)) | Musculoskeletal and connective tissue disorders (causally related), any grade ([1]; Total (n = 30)) | Nasal ulcer (causally related), any grade ([1]; Total (n = 30)) | Nausea (causally related), grade ≥3 ([1]; Total (n = 30)) | Pancreatitis (causally related), any grade ([1]; Total (n = 30)) | Pancreatitis (causally related), grade ≥3 ([1]; Total (n = 30)) | Renal and urinary disorders (causally related), any grade ([1]; Total (n = 30)) | Renal and urinary disorders (causally related), grade ≥3 ([1]; Total (n = 30)) | Respiratory, thoracic and mediastinal disorders (causally related), any grade ([1]; Total (n = 30)) | Stomatitis (causally related), any grade ([1]; Total (n = 30)) | Vascular disorders (causally related), any grade ([1]; Total (n = 30)) | Vomiting (causally related), grade ≥3 ([1]; Total (n = 30))
20%: patients with treatment-related adverse events grade ≥ 3 [1, 2]
14 µM: IC50 (CYP3A)
2 (6.7) Number of patients (%): Dehydration (causally related), any grade ([1]; Total (n = 30)) | Dizziness (causally related), any grade ([1]; Total (n = 30)) | Metabolism and nutrition disorders (causally related), grade ≥3 ([1]; Total (n = 30)) | Nervous system disorders (causally related), any grade ([1]; Total (n = 30)) | Neutropenia (causally related), any grade ([1]; Total (n = 30)) | Neutropenia (causally related), grade ≥3 ([1]; Total (n = 30)) | Thrombocytopenia (causally related), any grade ([1]; Total (n = 30))
One: patients reporting serious AEs (SAEs) considered related to adavosertib ([1]; adavosertib alone on days 1 and 2, two SAEs: acute kidney injury and pancreatitis, led to discontinuation)
0.0052 µM: IC50 (Wee1)

From paper PMC10363032 (Cancer Chemotherapy and Pharmacology, 2023)
